Measured values reported in patent publication US7229646B2, “Methods and compositions for modulating immune response and for the treatment of inflammatory disease” (Foodscience Corporation, priority 1999, dated 2007).

Key:
CD19^+ B cell = assay: Spleen lymphocyte populations by flow cytometry, CD19+ B cells; type: in vivo, MRI-lpr mice; details: flow cytometry after twelve weeks (FIG. 3)
Text: (§1) MRI-lpr mice were used to study the effects of a combination of DMG and PCE on components of the immune system and on the progression of the SLE disease. Forty MRI-lpr mice were divided into four groups of ten mice each: a control group, a PCE treated group, a DMG treated group, and a PCE-DMG treated group. The control group was given standard mouse chow and water. […] The PCE group was given a PCE-mouse chow mix and water. The PCE-DMG combination group was given a PCE-mouse chow mix and DMG water. […] The mice were given food and water ad libitum. It is estimated that the mice, with a size range of 30–50 grams, consumed about 1–3 mg/day of DMG and 2–6 mg/day of PCE. The mice were weighed weekly and 100 ul of blood was collected via orbital bleed on a weekly basis. The collected blood was centrifuged and the serum was recovered and stored at −20° C. for analysis at the end of the twelve week experiment. After twelve weeks, the mice were sacrificed and the spleens, kidneys, and livers were harvested. […] The spleens were processed and the cells recovered were quantified by flow cytometry using fluorescent anti-CD4, anti-CD8 and anti-CD19 antibodies (Pharmingen, San Diego, Calif.). Cytokine levels in the serum and anti-single stranded and double stranded DNA antibody levels in the serum were determined using an enzyme linked immunosorbent assay (ELISA).

[1] = tested on: humoral and cellular immunity; details: Graber et al., 1981; cited from earlier work
CD8^+ T cells = assay: Spleen lymphocyte populations by flow cytometry, CD8+ T cells; type: in vivo, MRI-lpr mice; details: flow cytometry after twelve weeks (FIG. 3)
Text: as §1

lactic acid levels = details: animals under extreme stress; cited from earlier work
anti-ssDNA antibody = assay: Serum anti-ssDNA antibody ELISA; type: in vivo, MRI-lpr mice; details: time course to 11th week; versus control (FIG. 5)
Text: as §1

[2] = tested on: B-cells, T cells and macrophages; details: in humans; cited from earlier work
il-10 = assay: Serum cytokine ELISA, il-10; type: in vivo, MRI-lpr mice; details: ELISA (FIG. 2)
Text: as §1

il-6 = assay: Serum cytokine ELISA, il-6; type: in vivo, MRI-lpr mice; details: ELISA (FIG. 2)
Text: as §1

In the case of `CN(C)CC(=O)O` [DMG, N,N-dimethylglycine], the “CD19^+ B cell percentages” value (CD19^+ B cell) is listed as “No effect”, the “effect on humoral and cellular immunity” value [1] is listed as “stimulation of both humoral and cellular immunity” and the “CD8^+ T cells” value (CD8^+ T cells) is listed as “No effect”. The lactic acid levels (lactic acid levels) was “decreased lactic acid levels”, the oxygen utilization (lactic acid levels) was “increased oxygen utilization” and the “anti-ssDNA antibody levels in the serum” value (anti-ssDNA antibody) was “appeared to be leveling out”. For the same compound, the B-cell antibody responses [2] was “much higher antibody responses”, the “activity of T cells and macrophages” value [2] was “enhanced” and the “levels of serum il-10” value (il-10) was “higher levels of IL-10 than in controls”. The “levels of serum il-6” value (il-6) was “significantly lower levels of il-6 than control animals”.
